Columns and labels:
Assay type in all cases: in vivo
Cyperus esculentus = assay: Post-emergence herbicidal action, CYPES; design: key: % herbicidal action vs untreated; 100 = plants died, 0 = like control
In short: (§1)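 Percent herbicidal effect was rated visually about 3 weeks after treatment, relative to untreated plants (0% = like control, 100% = dead). Compounds, formulated as WP or EC, went on as aqueous spray (600–800 l/ha, 0.2% wetting agent) to one-leaf-stage plants 2–3 weeks post-sowing in sandy loam.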

Abutilon theophrasti = assay: Pre-emergence herbicidal action, ABUTH; settings: dosage 320 g/ha, scored visually after 3 weeks vs untreated controls (100% = plants have died)
In short: (§2)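 Pre-emergence, sandy loam soil; WP/EC formulation applied to covering soil surface, 600–800 l/ha water + 0.2% wetter; greenhouse, 3 wk; visual % damage vs untreated (0–100%).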

Pharbitis purpurea = assay: Pre-emergence herbicidal action, PHBPU; settings: for herbicidal activity PHBPU: dosage 320 g/ha, scored visually after 3 weeks vs untreated controls (100% = plants have died)
In short: as §2

Setaria viridis = assay: Post-emergence herbicidal action, SETVI; design: key: % herbicidal action vs untreated; 100 = plants died, 0 = like control
In short: as §1

Stellaria media = assay: Pre-emergence herbicidal action, STEME; settings: dosage 320 g/ha; for herbicidal activity STEME: scored visually after 3 weeks vs untreated controls (100% = plants have died)
In short: as §2

Lolium multiflorum = assay: Pre-emergence herbicidal action, LOLMU; settings: dosage 320 g/ha, scored visually after 3 weeks vs untreated controls (100% = plants have died)
Source text: 1. Pre-Emergence Herbicidal Action Against Harmful Plants Seeds of monocotyledonous and dicotyledonous weed plants and crop plants are laid out in sandy loam soil in wood-fiber pots and covered with soil. The compounds of the invention, formulated in the form of wettable powders (WP) or as emulsion concentrates (EC), are then applied to the surface of the covering soil in the form of an aqueous suspension or emulsion at a water application rate equating to 600 to 800 l/ha, with addition of 0.2% wetting agent. After the treatment, the pots are placed in a greenhouse and kept under good growth conditions for the trial plants. The damage to the test plants is scored visually after a test period of 3 weeks by comparison with untreated controls (herbicidal activity in percent (%): 100% activity=the plants have died, 0% activity=like control plants). […] The tables below illustrate, in an exemplary manner, the […] herbicidal action of the compounds according to the invention, the herbicidal activity being stated in percent. [table] In the experiments that follow, herbicidal action of numerous inventive compounds and the known compounds that are structurally closest from D1 (WO 2012/028579 A1) and D2 (WO 2018/202535 A1) were compared under the above-specified conditions by the pre-emergence and post-emergence method. The example numbers given in the tables relate to the compounds disclosed in the respective documents. In addition to the compounds disclosed in D1 and D2, the following compounds V-1 to V-14 that are encompassed by D1 or D2 but are not compounds specified therein were used in the comparative experiments: • V-1: 2-(methylsulfanyl)-3-(methylsulfinyl)-N-(1-methyl-1H-tetrazol-5-yl)-4-(trifluoromethyl)benzamide • V-2: 2-(methylsulfanyl)-3-(methylsulfonyl)-N-(1-methyl-1H-tetrazol-5-yl)-4-(trifluoromethyl)benzamide • V-3: 2,3-bis(ethylsulfanyl)-N-(1-methyl-1H-tetrazol-5-yl)-4-(trifluoromethyl)benzamide • V-4: 2-chloro-3-(ethylsulfanyl)-N-(1-methyl-1H-tetrazol-5-yl)-4-(trifluoromethyl)benzamide • V-5: 2-chloro-4-iodo-3-(methylsulfanyl)-N-(1-methyl-1H-tetrazol-5-yl)benzamide • V-6: 2-chloro-4-iodo-3-(methylsulfinyl)-N-(1-methyl-1H-tetrazol-5-yl)benzamide • V-7: 2-chloro-4-iodo-3-(methylsulfonyl)-N-(1-methyl-1H-tetrazol-5-yl)benzamide • V-8: 2-bromo-3-(methylsulfanyl)-N-(1-methyl-1H-tetrazol-5-yl)-4-(trifluoromethyl)benzamide • V-9: 2-bromo-3-(methylsulfinyl)-N-(1-methyl-1H-tetrazol-5-yl)-4-(trifluoromethyl)benzamide • V-10: 2-bromo-3-(methylsulfonyl)-N-(1-methyl-1H-tetrazol-5-yl)-4-(trifluoromethyl)benzamide • V-11: 2-bromo-3-(ethylsulfanyl)-N-(1-methyl-1H-tetrazol-5-yl)-4-(trifluoromethyl)benzamide • V-12: 2-bromo-3-(ethylsulfinyl)-N-(1-methyl-1H-tetrazol-5-yl)-4-(trifluoromethyl)benzamide • V-13: 2-bromo-3-(ethylsulfonyl)-N-(1-methyl-1-1H-tetrazol-5-yl)-4-(trifluoromethyl)benzamide • V-14: 2-cyclopropyl-3-(ethylsulfanyl)-N-(1-methyl-1H-tetrazol-5-yl)-4-(trifluoromethyl)benzamide Herbicidal Pre-Emergence Action: […]

SMILES	herbicidal activity ABUTH (Abutilon theophrasti)	herbicidal activity PHBPU (Pharbitis purpurea)	herbicidal activity STEME (Stellaria media)	herbicidal action SETVI (Setaria viridis; Dosage 80 g/ha)	further results
CCSCc1c(C(F)(F)F)ccc(C(=O)Nc2nnnn2C)c1C [Example 1-86]	100%	80%	–	–	herbicidal action CYPES (Cyperus esculentus; post-emergence, dosage 80 g/ha): 80%; herbicidal action SETVI (Setaria viridis; post-emergence, dosage 80 g/ha): 80%
CSCc1c(C(F)F)ccc(C(=O)Nc2nnnn2C)c1C [Example 1-107, 4-(difluoromethyl)-2-methyl-3-[(methylsulfanyl)methyl]-N-(1-methyl-1H-tetrazol-5-yl)benzamide]	100%	90%	90%	90	–
Cc1c(C(=O)Nc2nnnn2C)ccc(C(F)F)c1CS(C)(=O)=O [Example 1-109]	100%	80%	–	90	herbicidal action CYPES (Cyperus esculentus; Dosage 80 g/ha): 80
COc1c(C(=O)Nc2nnnn2C)ccc(C(F)(F)F)c1CSC [Example 1-134]	100%	80%	–	100	Herbicidal action against PHBPU (Pharbitis purpurea; comparative experiment, 20 g of a.i./ha): 20; Herbicidal action against SETVI (Setaria viridis; post-emergence, dosage 80 g/ha): 100
CCSCc1c(C(F)F)ccc(C(=O)Nc2nnnn2C)c1SCC [Example 1-191]	100%	–	100%	100	herbicidal activity LOLMU (Lolium multiflorum): 80%
CSCc1c(C(F)(F)F)ccc(C(=O)Nc2nnnn2C)c1F [Example 1-242]	100%	–	90%	90	herbicidal action CYPES (Cyperus esculentus; Dosage 80 g/ha): 80
Cn1nnnc1NC(=O)c1ccc(C(F)(F)F)c(C[S+](C)[O-])c1F (stereo not shown) [Example 1-243]	100%	80%	90%	100	–
Cn1nnnc1NC(=O)c1ccc(C(F)(F)F)c(CS(C)(=O)=O)c1F [Example 1-244]	100%	90%	90%	100	–
Cc1ccc(C(=O)Nc2nnnn2C)c(Cl)c1CS(C)(=O)=O [Example 1-289]	90%	–	90%	90	–
CCS(=O)(=O)Cc1c(C(F)(F)F)ccc(C(=O)Nc2nnnn2C)c1Cl [Example 1-301]	100%	100%	90%	90	–
C=CCSCc1c(C(F)(F)F)ccc(C(=O)Nc2nnnn2C)c1Cl [Example 1-308]	100%	100%	100%	–	herbicidal action CYPES (Cyperus esculentus; post-emergence, dosage 80 g/ha): 90%; herbicidal action SETVI (Setaria viridis; post-emergence, dosage 80 g/ha): 100%
Cn1nnnc1NC(=O)c1ccc(C(F)(F)F)c(CS(C)(=O)=O)c1Br [Example 1-382, 2-bromo-3-[(methylsulfonyl)methyl]-N-(1-methyl-1H-tetrazol-5-yl)-4-(trifluoromethyl)benzamide]	100%	–	90%	90	–
CCn1nnnc1NC(=O)c1ccc(S(C)(=O)=O)c(CS(C)(=O)=O)c1C [Example 2-39]	–	–	–	100	herbicidal action CYPES (Cyperus esculentus; Dosage 80 g/ha): 80; herbicidal action STEME (Stellaria media): 100%
CCn1nnnc1NC(=O)c1ccc(C(F)F)c(CSC)c1C [Example 2-107]	100%	–	90%	90	–
CCn1nnnc1NC(=O)c1ccc(C(F)(F)F)c(C[S+](C)[O-])c1OC (stereo not shown) [Example 2-135]	100%	–	90%	100	–
CCn1nnnc1NC(=O)c1ccc(C(F)(F)F)c(CS(C)(=O)=O)c1OC [Example 2-136]	100%	–	100%	100	–

SMILES	herbicidal activity ABUTH (Abutilon theophrasti)	herbicidal activity PHBPU (Pharbitis purpurea)	herbicidal activity STEME (Stellaria media)	herbicidal action SETVI (Setaria viridis; Dosage 80 g/ha)	further results
CCn1nnnc1NC(=O)c1ccc(C(F)(F)F)c(CS(C)(=O)=O)c1SC [Example 2-163]	100%	90%	90%	90	–
CCn1nnnc1NC(=O)c1ccc(C)c(CSC)c1Cl [Example 2-287]	–	–	80%	90	–
CCn1nnnc1NC(=O)c1ccc(C(F)(F)F)c(CS(C)(=O)=O)c1Br [Example 2-382]	100%	–	90%	90	herbicidal activity LOLMU (Lolium multiflorum): 80%
CCCn1nnnc1NC(=O)c1ccc(C(F)(F)F)c(CS(=O)(=O)CC)c1C [Example 3-88]	100%	90%	80%	90	–
CCCn1nnnc1NC(=O)c1ccc(C(F)F)c(CSC)c1C [Example 3-107]	100%	–	100%	90	–
CCCn1nnnc1NC(=O)c1ccc(C(F)(F)F)c(CSC)c1OC [Example 3-134]	100%	–	100%	100	–
CCCn1nnnc1NC(=O)c1ccc(C(F)(F)F)c(CS(C)(=O)=O)c1OC [Example 3-136]	100%	–	100%	100	–
CCCn1nnnc1NC(=O)c1ccc(C(F)(F)F)c(CSC)c1Cl [Example 3-296]	100%	–	100%	90	herbicidal activity LOLMU (Lolium multiflorum): 80%
CCCn1nnnc1NC(=O)c1ccc(C(F)(F)F)c(C[S+](C)[O-])c1Cl (stereo not shown) [Example 3-297]	100%	80%	100%	–	herbicidal action CYPES (Cyperus esculentus; post-emergence, dosage 80 g/ha): 80%; herbicidal action SETVI (Setaria viridis; post-emergence, dosage 80 g/ha): 80%
CCCn1nnnc1NC(=O)c1ccc(C(F)(F)F)c(CSCC)c1Cl [Example 3-299]	100%	–	90%	90	herbicidal activity LOLMU (Lolium multiflorum): 90%
CCCn1nnnc1NC(=O)c1ccc(C(F)F)c(CSC)c1Cl [Example 3-320]	100%	–	100%	100	–
CCCn1nnnc1NC(=O)c1ccc(C(F)F)c(C[S+]([O-])CC)c1Cl (stereo not shown) [Example 3-324]	100%	90%	100%	100	herbicidal action CYPES (Cyperus esculentus; Dosage 80 g/ha): 90
CCCn1nnnc1NC(=O)c1ccc(C(F)(F)F)c(CSC)c1Br [Example 3-380]	100%	90%	–	90	–
CCCn1nnnc1NC(=O)c1ccc(C(F)(F)F)c(C[S+](C)[O-])c1Br (stereo not shown) [Example 3-381]	100%	–	90%	–	herbicidal action CYPES (Cyperus esculentus; post-emergence, dosage 80 g/ha): 90%; herbicidal action SETVI (Setaria viridis; post-emergence, dosage 80 g/ha): 90%
CCCn1nnnc1NC(=O)c1ccc(C(F)(F)F)c(CSCC)c1Br [Example 3-383]	100%	–	100%	90	herbicidal activity LOLMU (Lolium multiflorum): 80%

Reference: patent publication US12492173B2, “Herbicidal substituted N-tetrazolyl aryl carboxamides” (Bayer Aktiengesellschaft, priority 2019, dated 2025)
